# Structures can show the parent of a compound that is named as a salt.
# Assays:
# [1] = system: 59 targets (non-SR sites); assay: NovaScreen and in-house profile of 59 targets; format: binding; settings: 10,000 nM screening concentration
# α2-adrenoceptors = assay: NovaScreen radioligand displacement screen; format: binding; settings: 100 nM screening concentration
# [2] = system: peripheral muscarinic receptors; assay: NovaScreen radioligand displacement screen; format: binding; settings: 100 nM screening concentration
# [3] = system: neuronal (α-bungarotoxin insensitive) nicotinic receptors; assay: NovaScreen radioligand displacement screen; format: binding; settings: 100 nM screening concentration
# opioid receptors = assay: Radioligand displacement screen; format: binding; settings: 100 nM screening concentration
# calcium L type channels = assay: NovaScreen radioligand displacement screen; format: binding; settings: 100 nM screening concentration
# sodium, site 2 channels = assay: NovaScreen radioligand displacement screen; format: binding; settings: 100 nM screening concentration
# acetylcholine esterase = acetylcholine esterase (Homo sapiens, UniProt P22303); assay: NovaScreen radioligand displacement screen; format: binding; settings: 100 nM screening concentration
# acetylcholine esterase, sequence (P22303 32-614): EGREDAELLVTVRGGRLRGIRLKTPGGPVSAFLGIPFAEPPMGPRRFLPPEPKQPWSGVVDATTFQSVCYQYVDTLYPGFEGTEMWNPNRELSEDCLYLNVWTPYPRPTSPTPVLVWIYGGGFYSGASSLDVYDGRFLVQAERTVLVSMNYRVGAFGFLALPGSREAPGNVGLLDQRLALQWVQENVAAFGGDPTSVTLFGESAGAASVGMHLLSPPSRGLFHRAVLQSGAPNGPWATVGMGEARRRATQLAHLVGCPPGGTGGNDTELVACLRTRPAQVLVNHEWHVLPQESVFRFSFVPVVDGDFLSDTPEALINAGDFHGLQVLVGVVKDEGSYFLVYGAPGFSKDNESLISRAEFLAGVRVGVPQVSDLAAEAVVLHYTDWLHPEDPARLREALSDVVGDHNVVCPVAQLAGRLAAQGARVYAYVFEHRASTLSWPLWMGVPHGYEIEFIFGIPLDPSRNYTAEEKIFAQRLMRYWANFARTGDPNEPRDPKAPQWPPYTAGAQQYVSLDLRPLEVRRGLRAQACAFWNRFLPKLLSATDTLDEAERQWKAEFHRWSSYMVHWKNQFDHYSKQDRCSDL
# [4] = In vitro half-life in rat liver microsomes
# [5] = target: emopamil binding protein (EBP); settings: read-out: Ki for EBP; cited from earlier work
# [6] = target: vesicular acetylcholine transporter (VAChT); settings: read-out: Ki for VAChT; cited from earlier work
# S1R = settings: read-out: Ki for S1R; cited from earlier work
# [7] = cited from earlier work; for time of maximum uptake in the brain post injection: normal mice
# [8] = Stability of formulated [18F]13 by analytical reverse-phase HPLC; format: physicochemical; settings: saline/ethanol (9:1, total 10 mL)
# [9] = Small-animal PET imaging, baseline brain uptake of [18F]13; format: in vivo, mouse
# [10] = Ex vivo determination of radiometabolites in mouse plasma, liver and brain
# S1Rs = S1Rs (Mus musculus, UniProt O55242); assay: Small-animal PET blocking studies of [18F]13 binding in brain; format: in vivo; settings: pre-treatment 1 mg/kg, 10 min prior to iv [18F]13, whole mouse brain
# S1Rs, sequence (O55242 whole entry): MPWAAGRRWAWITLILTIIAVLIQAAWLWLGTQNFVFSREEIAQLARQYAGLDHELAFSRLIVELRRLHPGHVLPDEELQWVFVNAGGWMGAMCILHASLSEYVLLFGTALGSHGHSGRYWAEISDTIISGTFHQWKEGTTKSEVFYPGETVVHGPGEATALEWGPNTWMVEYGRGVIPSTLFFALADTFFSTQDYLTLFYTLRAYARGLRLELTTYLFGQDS
compound,measurement,setting,value
"O=c1sc2cc(CCCF)ccc2n1CCN1CCCCCC1 [compound 13, 3-(2-(azepan-1-yl)ethyl)-6-(3-fluoropropyl)benzo[d]thiazol-2(3H)-one hydrochloride]",displacement of the radioligand,[1],< 50%
same,displacement of the radioligand,α2-adrenoceptors,< 50%
same,displacement of the radioligand,[2],< 50%
same,displacement of the radioligand,[3],< 50%
same,displacement of the radioligand,opioid receptors,< 50%
same,displacement of the radioligand,calcium L type channels,< 50%
same,displacement of the radioligand,"sodium, site 2 channels",< 50%
same,displacement of the radioligand,acetylcholine esterase,< 50%
same,clearance,[4],0.18 mL/min/g
COc1cc(CCN2CCN(CCCc3ccccc3)CC2)ccc1O[11CH3] [compound 3],Ki,[5],1.7 nM
same,Ki,[6],50 nM
CCCc1ccc2c(c1)sc(=O)n2CCN1CCCCCC1 [compound 9],Ki,S1R,0.56 nM
FCCC1OC2(CCN(Cc3ccccc3)CC2)c2ccccc21 (centres unmarked) [compound 8],brain level at 60 min post injection as percent of maximum,"[7]; mouse brain, biodistribution",81%
same,time of maximum uptake in the brain post injection,[7],30 min
COc1cc(CCN2CCN(CCCc3ccccc3)CC2)ccc1OC[18F] [compound 4],time of maximum uptake in the brain post injection,[7],30 min
"O=c1sc2cc(CCCF)ccc2n1CCN1CCCCCC1 [[^18F]13, 6-(3-fluoropropyl)-3-(2-(azepan-1-yl)ethyl)benzo[d]thiazol-2(3H)-one]",time formulated tracer shown to be stable,[8],at least 5.5 hours
same,brain uptake at 60 min,"[9]; baseline TAC, whole mouse brain",6 %ID/g
same,maximum uptake in brain,"[9]; baseline TAC, whole mouse brain, within the first few minutes",~ 17 %ID/g
same,brain uptake at 60 min post injection as percent of maximum,[9]; mouse brain,65%
same,percentage of intact tracer in plasma,[10]; 30 min post administration,60%
same,percentage of intact tracer in plasma,[10]; 60 min post administration,50%
same,percentage of intact tracer in brain,[10]; throughout the study (30 and 60 min),100%
"CN(C)CCN(C)CCc1ccc(Cl)c(Cl)c1 [compound 18, N-[2-(3,4-dichlorophenyl)ethyl]-N-methyl-2-(dimethylamino)-ethylamine]",reduction of [18F]13 binding in the brain at 60 min,S1Rs,81%

# Reference: paper PMC4106900 (Journal of medicinal chemistry, 2012)
